In patent US7446122B2, “Substituted indole derivatives” (Cephalon, Inc., priority 2003, dated 2008):

Assays:
COX-1 = biological target: T1, COX-1 (Homo sapiens, UniProt P23219); test: Cox-1 assay: PGE2 formation in human platelets; assay type: cell-based; conditions: for IC50: arachidonic acid 100 μM, PGE2; for inhibition at 10 µM: compounds are screened at 10 μM
T1 construct: endogenous in cells; host or cells: human platelets
Protocol: Test compound and/or vehicle is incubated with human platelets (10^8/ml) containing the phospholipase inhibitor MLnFP (100 μM) for 15 minutes at 37° C. Arachidonic acid (100 μM) is then added for a further 15 minute incubation period. The reaction is stopped by addition of 1 N HCl and neutralized with 1N NaOH. PGE2 levels in the supernatant are determined using the Amersham EIA kit. […]

primary CLL cells = test: Cell cytotoxicity, MTT assay, primary CLL cells; assay type: cell-based; conditions: 72 h, three days incubation
Protocol: (§1) Normal prostate cells (PREC, Cambrex East Rutherford N.J.), prostate cancer cell line (LNCaP, ATCC), PBL (peripheral blood leukocytes-buffy coat San Diego Blood Bank), and primary CLL cells were incubated for one to two days in RPMI-1640 and 10% FBS (fetal bovine serum). They were plated in 96-well plates at 100,000 cells/well. Titrated concentrations of the compound to be tested were added to the culture medium. The cells were incubated three days at 37° C., 5% CO2. Viability of the cells was assayed by standard MTT assay. Each drug concentration was done in duplicate. MTT assay: 10 μl of 12 mM 3,[4,5-dimethylthiazol-2-yl]-2,5-diphenyltetrazolium bromide (MTT) (SIGMA) was added to each well. The cells were incubated at 37° C., 5% CO2 for 4 hours. 100 μl of 20% SDS, 0.015M HCl was added to each well and the cells were incubated overnight. The plates were read at absorbance 595 nm.

[1] = system: Cyclin D1 protein in LNCaP cells; test: Western blot of Cyclin D1 protein in LNCaP cell lysates; assay type: cell-based; conditions: LNCaP cell lysates from treated cells
[2] = system: Daudi human Burkitt Lymphoma derived tumors; test: Daudi lymphoma murine xenograft model, efficacy; assay type: in vivo, male SCID mice; conditions: for mean tumor volume at termination of the study: p.o. in sesame oil, compound 47 250, compound 36 (printed 26) 250, compound 1 125, R-etodolac 400 mg/kg/d, control 1583 mm^3; for 4× Growth: time for the tumors to grow to 4× the initial volume at dosing, control 8.9 d; for 8× Growth: time for the tumors to grow to 8× the initial volume at dosing, control 14.5 d
Protocol: Male SCID mice, 6-8 weeks of age, obtained from Simonsen Laboratories, Inc. (Gilroy, Calif.) were housed in groups of five.
The Daudi human Burkitt Lymphoma cells were obtained from American Type Culture Collection and were inoculated subcutaneously (1.0×10^7 cells/mouse) on the flanks of SCID mice. After the tumors reached approximately 100 mm^3 treatment was initiated.
Body weights and tumor volume of all mice were measured and recorded twice weekly. Tumors were measured in three dimensions and volume calculated using the formula: […]. Time for the tumors (days) to grow to 4× and 8× the initial volume at dosing were assessed. Study compounds were administered at 125 or 250 mg/kg/day (M-F) via oral gavage until the end of the study.
The efficacy of chlorambucil (2 and 3 mg/kg/d), (R-etodoalc) (400 mg/kg/d) and compound 47 (250 mg/kg/d), compound 26 (250 mg/kg/d), and compound 1 (125 mg/kg/d) against Daudi derived tumors in male SCID mice were studied. R-etodolac and compounds 1, 26 and 47 were prepared in sesame oil. Both chlorambucil (ip, 0.1 ml) and compounds of the invention (per os [p.o.], 0.31 ml) were dosed daily (Monday to Friday) for two weeks. SDX-101 (0.31 ml) was dosed p.o. daily until the end of the study. […] However, all treated mice recovered after Day 2 and maintained their weights. There was no body weight loss observed in other treatment groups. At termination of the study, the control group mean tumor volume was 1583 mm^3. The mean tumor volume of chlorambucil treated groups were 864 and 766 mm^3 with 2 and 3 mg/kg/d chlorambucil treatment, respectively. The mean tumor volume of R-etodolac and compounds 1, […] and 47 were 802, 996, 1011, and 1157 mm^3 with compounds 47, 36, 1 and R-etodolac treatment, respectively. […] At termination of the study, tumor samples along with liver, kidney, and spleen samples from each group were collected and fixed in 10% buffered formalin for histopathology.

[3] = biological target: T2, Cyclooxygenase-2 (human recombinant, expressed in Sf9 cell) (Homo sapiens, UniProt P35354); test: Cox-2 assay: human recombinant cyclooxygenase-2, PGE2 by EIA; assay type: biochemical; conditions: human recombinant enzyme; for IC50: 0.3 μM arachidonic acid, PGE2; for inhibition at 10 µM: compounds are screened at 10 μM
T2 construct: purchased Cayman 60122; host or cells: Sf9 cell
T2 sequence (P35354 18-604): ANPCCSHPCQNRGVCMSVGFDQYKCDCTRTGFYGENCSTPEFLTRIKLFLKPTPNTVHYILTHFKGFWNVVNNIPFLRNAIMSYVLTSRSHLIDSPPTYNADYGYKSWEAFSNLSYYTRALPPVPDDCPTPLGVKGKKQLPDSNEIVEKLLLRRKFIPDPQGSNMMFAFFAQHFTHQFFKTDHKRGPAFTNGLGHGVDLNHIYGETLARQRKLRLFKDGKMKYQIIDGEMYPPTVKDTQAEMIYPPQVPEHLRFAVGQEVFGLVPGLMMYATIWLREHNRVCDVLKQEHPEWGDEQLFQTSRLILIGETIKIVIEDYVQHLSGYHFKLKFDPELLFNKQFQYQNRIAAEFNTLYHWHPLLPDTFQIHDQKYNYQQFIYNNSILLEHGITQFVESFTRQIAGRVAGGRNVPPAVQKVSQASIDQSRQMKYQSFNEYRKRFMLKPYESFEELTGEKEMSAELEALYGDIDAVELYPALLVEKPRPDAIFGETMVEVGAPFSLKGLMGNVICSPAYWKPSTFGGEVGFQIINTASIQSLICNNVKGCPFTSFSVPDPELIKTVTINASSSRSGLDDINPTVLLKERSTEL
Protocol: Test compound and/or vehicle is pre-incubated with 0.11 U cyclooxygenase-2, 1 mM reduced glutathione (GSH), 500 μM phenol and 1 μM hematin for 15 minutes at 37° C. The reaction is initiated by addition of 0.3 μM arachidonic acid as substrate in Tris-HCl pH 7.7 and terminated after a 5 minute incubation at 37° C. by addition of 1N HCl. Following centrifugation, substrate conversion to PGE2 is measured by an Amersham EIA kit. Compounds are screened at 10 μM. […] J. Physiol.

[4] = system: Normal prostate cells (PREC); test: Cell cytotoxicity, MTT assay, PREC; assay type: cell-based; conditions: Homo sapiens, 72 h, three days incubation
Protocol: as §1

[5] = system: cyclin D1 transcripts in LNCaP cells; test: Cyclin D1 transcript expression by quantitative PCR in LNCaP cells; assay type: cell-based; conditions: 24 hours, compound 42 (50 μM), compound 36 (100 μM), compound 1 (20 μM), normalized to 18s, FIG. 2
Protocol: Cyclin D1 Transcript Expression Levels as measured by quantitative PCR assay. LNCaP cells were cultured at 37° C., 5% CO2 for 24 hours untreated or in the presence of R-etodolac (200 μM), compound 42 (50 μM), compound 36 (100 μM), or compound 1 (20 μM) (see Table II for structures). Cells were harvested by trypsinization, washed with PBS, and stored at −80° C. Total cellular RNA was prepared from cell pellets using the RNEasy® Mini kit (Qiagen, Inc., Valencia, Calif.). RNA was quantified by spectrophotometer. Approximately 2 μg of RNA was used to prepare cDNA using the ThermoScript™ RT-PCR System (Invitrogen, Carlsbad, Calif.).
The levels of cyclin D1 transcripts in the cDNA samples were measured using a quantitative PCR (qPCR) assay specific for cyclin D1. The cyclin D1 transcript was amplified using the following primer pair:
The cyclin D1 primers are described in a manuscript from Takayasu et al. (2001 Clin. Cancer Res. 7:901-908). All assays were performed in duplicate. All qPCR assays were performed and analyzed using a Bio-Rad iCycler (Bio-Rad, Hercules, Calif.). The levels of cyclin D1 transcripts were normalized for total input cDNA by performing a separate assay to detect the levels of a housekeeping gene (18s) using the following primer pair:
The samples were normalized for 18s transcript levels using the method of Livak et al. (2001 Methods 25:402-408). The level of cyclin D1 transcripts in the control sample was set to 1. FIG. 2 represents the averaged normalized cyclin D1 transcripts±standard deviation for three independent experiments (two independent experiments for compound 1).

[6] = system: PBL (peripheral blood leukocytes); test: Cell cytotoxicity, MTT assay, PBL; assay type: cell-based; conditions: Leukocyte, 72 h, three days incubation
Protocol: as §1

[7] = system: prostate cancer cell line (LNCaP); test: Cell cytotoxicity, MTT assay, LNCaP; assay type: cell-based; conditions: Homo sapiens, 72 h, three days incubation
Protocol: as §1

T1 sequence (P23219 24-599): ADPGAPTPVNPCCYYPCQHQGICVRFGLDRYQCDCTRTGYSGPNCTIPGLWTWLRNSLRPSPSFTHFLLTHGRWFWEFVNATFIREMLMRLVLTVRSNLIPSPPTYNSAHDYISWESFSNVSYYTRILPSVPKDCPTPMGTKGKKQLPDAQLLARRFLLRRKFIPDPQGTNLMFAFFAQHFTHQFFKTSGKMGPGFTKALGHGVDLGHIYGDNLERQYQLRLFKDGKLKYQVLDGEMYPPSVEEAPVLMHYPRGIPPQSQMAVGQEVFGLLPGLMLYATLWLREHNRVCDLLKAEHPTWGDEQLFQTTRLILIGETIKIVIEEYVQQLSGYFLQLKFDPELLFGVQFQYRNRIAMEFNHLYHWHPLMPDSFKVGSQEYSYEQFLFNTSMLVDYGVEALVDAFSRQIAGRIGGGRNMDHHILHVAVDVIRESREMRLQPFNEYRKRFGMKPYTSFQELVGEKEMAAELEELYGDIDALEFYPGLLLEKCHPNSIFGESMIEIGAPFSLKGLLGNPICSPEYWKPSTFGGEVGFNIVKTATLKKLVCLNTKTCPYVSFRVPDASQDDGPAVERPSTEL

Row | SMILES | IC50 (COX-1) [µM] | inhibition at 10 µM (COX-1) [%] | IC50 (primary CLL cells) [µM] | Cyclin D1 protein expression (Western blot) [1] | mean tumor volume at termination of the study [2] [mm^3] | 4× Growth [2] [days] | 8× Growth [2] [days] | IC50 [3] [µM] | inhibition at 10 µM [3] [%] | IC50 [4] [µM] | cyclin D1 mRNA expression [5] | IC50 [6] [µM] | IC50 [7] [µM] | melting point [°C]
1 | CCc1cc(-c2ccccc2)cc2c3c([nH]c12)C(CC)(CCO)OCC3 (stereo not drawn) [Compound 1, 2-(1,8-DIETHYL-6-PHENYL-1,3,4,9-TETRAHYDRO-PYRANO[3,4-b]INDOL-1-YL)-ETHANOL] | < 10 | 96 | 72 | reduced Cyclin D1 protein expression | 1011 | 15.8 | 21.1 | < 10 | 100 | 53 | inhibit cyclin D1 mRNA expression | 76 | 14 | –
2 | CCC1(CCO)OCCc2c1[nH]c1ccc(C)cc21 (stereo not drawn) [Compound 24, 2-(1-ETHYL-6-METHYL-1,3,4,9-TETRAHYDRO-PYRANO[3,4-b]INDOL-1-YL)-ETHANOL] | – | – | – | – | – | – | – | – | – | – | – | – | 80 | 114 to 115
3 | CCC1(CCO)OCCc2c1[nH]c1c(C)cccc21 (stereo not drawn) [Compound 25, 2-(1-ETHYL-8-METHYL-1,3,4,9-TETRAHYDRO-PYRANO[3,4-b]INDOL-1-YL)-ETHANOL] | – | – | – | – | – | – | – | – | – | – | – | – | 60 | 68
4 | CCC1(CCO)OCCc2c1[nH]c1c(Cl)cccc21 (stereo not drawn) [Compound 27, 2-(8-CHLORO-1-ETHYL-1,3,4,9-TETRAHYDRO-PYRANO[3,4-b]INDOL-1-YL)-ETHANOL] | > 300 | 24 | 52 | – | – | – | – | > 300 | 3 | 140 | – | 150 | 52 | –
5 | CCc1cccc2c3c([nH]c12)[C@@](CC)(CCO)OCC3 [Compound 35, R-2-(1,8-DIETHYL-1,3,4,9-TETRAHYDRO-PYRANO[3,4-b]INDOL-1-YL)-ETHANOL] | > 300 | -69 | 100 | – | – | – | – | > 300 | -10 | 220 | – | 140 | 68 | –
6 | CCC1(CCO)OCCc2c1[nH]c1c(C(C)C)cccc21 (stereo not drawn) [Compound 36, 2-(1-ETHYL-8-ISOPROPYL-1,3,4,9-TETRAHYDRO-PYRANO[3,4-b]INDOL-1-YL)-ETHANOL] | > 300 | -4 | 50 | reduced Cyclin D1 protein expression | 996 | 13.5 | 20.8 | > 300 | 18 | 160 | inhibit cyclin D1 mRNA expression | 160 | 30 | –
7 | CCC1(CCO)OCCc2c1[nH]c1ccc(Br)cc21 (stereo not drawn) [Compound 42, 2-(6-BROMO-1-ETHYL-1,3,4,9-TETRAHYDRO-PYRANO[3,4-b]INDOL-1-YL)-ETHANOL] | – | – | – | reduced Cyclin D1 protein expression | – | – | – | – | – | – | inhibit cyclin D1 mRNA expression | – | 12 | –
8 | CCC1(CCO)OCCc2c1[nH]c1c(Cl)cc(Cl)cc21 (stereo not drawn) [Compound 46, 2-(6,8-DICHLORO-1-ETHYL-1,3,4,9-TETRAHYDRO-PYRANO[3,4-b]INDOL-1-YL)-ETHANOL] | – | – | – | – | – | – | – | – | – | – | – | 20 | 18 | –
9 | CCc1cc(Br)cc2c3c([nH]c12)C(CC)(CCO)OCC3 (stereo not drawn) [Compound 47, 2-(6-BROMO-1,8-DIETHYL-1,3,4,9-TETRAHYDRO-PYRANO[3,4-b]INDOL-1-YL)-ETHANOL] | 68.6 | 45 | 21 | – | 802 | 16 | 21.5 | > 100 | 78 | 14 | – | 60 | 3 | –
10 | CCc1cccc2c3c([nH]c12)C(CC)(CC(=O)O)OCC3 (stereo not drawn) [Etodolac, reference compound] | – | – | 200 | – | – | – | – | > 300 | -14 | 416 | – | 350 | 122 | –
11 | CCc1cccc2c3c([nH]c12)[C@@](CC)(CC(=O)O)OCC3 [R-etodolac, reference compound] | – | – | – | reduced Cyclin D1 protein expression | 1157 | 11 | 17 | – | – | – | – | – | – | –
